The source of these data is patent US9309213B2, “C-3 substituted bicyclooctane based HIV protease inhibitors” (Purdue Research Foundation, priority 2011, dated 2016).

Where two headings read alike, the source gives them in different places. Bounds are passed on as bounds.

The term IC50 denotes the midpoint of a concentration-inhibition curve. In general, EC50 refers to the midpoint of the concentration-response curve.

Holding throughout (format): cell-based
The test system of one assay is HIV-1MDR/G. The experiment in a line: microbe, parasite or virus in culture. As to conditions: for IC50: Human immunodeficiency virus 1, read-out: IC50 ± SDs; for EC50 / fold-change in EC50: Table 4; for EC50: HIV-1MDR/G (X4), PHA-PBMs, p24 Gag; for fold-change in EC50: HIV-1MDR/G compared to wild-type HIV-1ERS104pre.
In another assay the test system is HIV-1MDR/B. The experiment in a line: microbe, parasite or virus in culture. As to conditions: for IC50: Human immunodeficiency virus 1, read-out: IC50 ± SDs; for EC50 / fold-change in EC50: Table 4; for EC50: HIV-1MDR/B (X4), PHA-PBMs, p24 Gag; for fold-change in EC50: HIV-1MDR/B compared to wild-type HIV-1ERS104pre.
Another assay has as its system HIV-1LAI. The experiment in a line: In vitro antiviral assay, MT-2 cells exposed to HIV-1LAI, MTT assay. In general terms: Tetrazolium assays rely on reduction of a dye to a coloured formazan, in cell work by metabolically active cells.
In assay [1] the test system is HIV-1ERS104pre (wild type). Briefly: Antiviral assay in PHA-PBMs, inhibition of p24 Gag protein production, wild-type isolate.
The test system of another assay is HIV-1MDR/TM. The experiment in a line: microbe, parasite or virus in culture. As to conditions: for IC50: Human immunodeficiency virus 1, read-out: IC50 ± SDs; for EC50 / fold-change in EC50: Table 4; for EC50: HIV-1MDR/TM (X4), PHA-PBMs, p24 Gag; for fold-change in EC50: HIV-1MDR/TM compared to wild-type HIV-1ERS104pre.
A further assay relates to HIV-1MDR/C. The experiment in a line: microbe, parasite or virus in culture. As to conditions: for IC50: Human immunodeficiency virus 1, read-out: IC50 ± SDs; for EC50 / fold-change in EC50: Table 4; for EC50: HIV-1MDR/C (X4), PHA-PBMs, p24 Gag; for fold-change in EC50: HIV-1MDR/C compared to wild-type HIV-1ERS104pre.
In assay [2] the test system is multidrug-resistant HIV-1 variants. Briefly: Antiviral activity against the panel of multidrug-resistant HIV-1 variants. The procedure: Inhibitors 22 with a 3(S)-hydroxyl group and 25 with a 3(R)-hydroxyl group on the Cp-THF ligand were tested against a panel of multidrug-resistant HIV-1 variants. […] The contrast in antiviral activity of 22 compared to 25 underlines the importance of the stereochemistry at the 3-position of the Cp-THF ligand.
Such a stark contrast in antiviral activities underlines the importance of the stereochemistry at the 3-position of the P2 ligand.

[3] abbreviates: Human immunodeficiency virus 1, MT2, Table 1, MT-2 cells, 100 TCID50s of HIV-1LAI, MTT assay, means of at least two experiments.
Where [4] appears, read: Human immunodeficiency virus 1, MT2, read-out: antiviral IC50.
The mark [5] stands for this setting: Human immunodeficiency virus 1, read-out: IC50 ± SDs.

As to `COc1ccc(S(=O)(=O)N(CC(C)C)C[C@@H](O)[C@H](Cc2ccccc2)NC(=O)O[C@@H]2C[C@@H]3[C@H](O)CO[C@@H]3C2)cc1` [Inhibitor 22, (3S,3aR,5R,6aR)-3-hydroxyhexahydro-2H-cyclopenta[b]furan-5-yl (2S,3R)-3-hydroxy-4-(4-(methoxy)-N-isobutylphenylsulfonamido)-1-phenylbutan-2-ylcarbamate], the IC50 was 270 ± 20 nM in the assay with HIV-1MDR/G; over 1000 nM in the assay with HIV-1MDR/B; 5 nM in the assay on HIV-1LAI (setting [3]); 5 nM in the assay on HIV-1LAI (setting [4]); 7 nM with HIV-1LAI (Table 1, MT-2 cells, 100 TCID50s of HIV-1LAI, MTT assay, means of at least two experiments); 20 nM in assay [1] (Human immunodeficiency virus 1). The results for the IC50 (in assay [1] (setting [5]); with HIV-1MDR/TM; in the assay on HIV-1MDR/C) were 20 ± 4 nM, 41 ± 4 nM and over 1000 nM, respectively.

Turning to `COC(=O)N[C@@H]1CO[C@@H]2C[C@H](OC(=O)N[C@@H](Cc3ccccc3)[C@H](O)CN(CC(C)C)S(=O)(=O)c3ccc(OC)cc3)C[C@H]12` [Inhibitor 19l], the EC50 in the assay with HIV-1MDR/G was found to be 39 ± 1 nM; with HIV-1MDR/B it was 75 ± 11 nM; in assay [1] (Table 4, HIV-1ERS104pre (wt), PHA-PBMs, p24 Gag, read-out: EC50 ± SDs) it was 29 ± 2 nM; in the assay with HIV-1MDR/TM it was 74 ± 6 nM; with HIV-1MDR/C, 30 ± 6 nM. Besides, the “fold-change in EC50” value amounted to 1 with HIV-1MDR/G, 3 with HIV-1MDR/B, 3 with HIV-1MDR/TM and 1 in the assay on HIV-1MDR/C. For the same compound, in assay [2] (all MDR HIV-1 viruses versus wild type), the “fold changes in EC50” value is recorded as under 3.

For the compound `COC(=O)N[C@H]1CO[C@@H]2C[C@H](OC(=O)N[C@@H](Cc3ccccc3)[C@H](O)CN(CC(C)C)S(=O)(=O)c3ccc(OC)cc3)C[C@H]12` [Inhibitor 19m], the EC50 with HIV-1MDR/G is 20 ± 5 nM; in assay [2] (range over the strains) it was 15 to 24 nM; in the assay with HIV-1MDR/B, 18 ± 3 nM; in assay [1] (wild-type HIV-1ERS104pre, read-out: EC50) it was 3 nM; in the assay on HIV-1MDR/TM, 24 ± 4 nM; in the assay with HIV-1MDR/C, 15 ± 5 nM. The “fold-change in EC50” value in the assay with HIV-1MDR/G was found to be 7; in the assay on HIV-1MDR/B it was 6; in the assay on HIV-1MDR/TM it was 8; in the assay on HIV-1MDR/C, 5.

In the case of `COc1ccc(S(=O)(=O)N(CC(C)C)C[C@@H](O)[C@H](Cc2ccccc2)NC(=O)O[C@@H]2C[C@@H]3[C@@H](O)CO[C@@H]3C2)cc1` [Inhibitor 25], the concentration for half-maximal inhibition (IC50) is 4.5 ± 0.7 nM in the assay with HIV-1MDR/G; 2.9 to 29 nM in assay [2] (Human immunodeficiency virus 1, read-out: IC50 values against various multidrug-resistant HIV-1 strains); 29 ± 7 nM in the assay on HIV-1MDR/B; 2.9 nM with HIV-1LAI (setting [3]); 2.9 nM in the assay on HIV-1LAI (setting [4]); 2.9 nM in assay [1] (Human immunodeficiency virus 1). Besides, the IC50 came out at 2.9 ± 0.8 nM in assay [1] (setting [5]), 3.1 ± 2 nM in the assay with HIV-1MDR/TM and 22 ± 3 nM in the assay with HIV-1MDR/C.
